Test [1] in a line: concentration-response yeast growth inhibition under permissive conditions, counter-assay for yeast lifespan-shortening chemical project (AID 850).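 Also: growth read as optical density after one day of incubation.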 The settings on record: Saccharomyces cerevisiae growth inhibition, permissive control, measured here: maximum growth inhibition, stronger effect = higher value.
The subject of test [2] is Saccharomyces cerevisiae growth inhibition, permissive control. The test is described as above.

The structures appear in SMILES notation. The source made the active and inactive calls. No rule for the calls is given here.

One may read the inhibition as the relative decrease from the control value, in per cent. The IC50 is the concentration that gives 50% inhibition.

As for `COc1ccc(NCc2nc3ccccc3n2CCOc2ccc(C)cc2)cc1`, in test [1] (at 50 µM), the inhibition worked out at 52.7%. For the same compound, in test [2], the IC50 is 42.2 µM.
Consider `CN(C)c1ccc(/C=C/c2ccc3ccccc3[n+]2C)cc1`, for which the inhibition in test [1] (at 50 µM) turned out to be 85.8%. The IC50 in test [2] was 22.3 µM.
Regarding `O=C(O)CCSc1nnc(-c2ccccc2)n1-c1ccccc1`, in test [1] (at 1.563 µM), the inhibition is 15.8%. The IC50 in test [2] is > 100 µM (inactive).
Take `NC(=O)c1sc2nc(-c3ccco3)ccc2c1N`: the inhibition in test [1] (at 1.563 µM) is 8.46%. The IC50 in test [2] is > 100 µM (inactive).
Consider `COc1ccccc1NC(=O)Cc1noc(CSc2cccc[n+]2[O-])n1`, for which the inhibition in test [1] (at 50 µM) came to 97.7%. For the same compound, the IC50 in test [2] was 21.9 µM.
On to `C=C(C)COc1ccc(-c2[nH]ncc2-c2ccccc2OC)c(O)c1`, for which the inhibition in test [1] (at 0.781 µM) came out at 23%. The IC50 in test [2] is > 100 µM (inactive).
For `COc1ccc(-c2nnc3c4ccccc4c(C)nn23)cc1`, the inhibition in test [1] (at 1.563 µM) stood at 11.6%. In addition, in test [2], the IC50 is > 100 µM (inactive).
Regarding `C=C(C)COc1ccc(-c2[nH]ncc2-c2ccc(Br)cc2)c(O)c1`, the inhibition in test [1] (at 25 µM) amounted to 15.9%. Moreover, the IC50 in test [2] was > 100 µM (inactive).
For the compound `CC(=O)NC(=S)c1c(N)n(Cc2ccccc2)c(=O)n(C)c1=O`, the inhibition in test [1] (at 3.125 µM) worked out at 7.99%. Also, in test [2], the IC50 is > 100 µM (inactive).
For the compound `Cc1csc(NC(=O)Cc2coc3cc(C)c(C(C)C)cc23)n1`, in test [1] (at 3.125 µM), the inhibition worked out at 10.1%. Also, the IC50 in test [2] was > 100 µM (inactive).
Consider `COc1ccc(/C=C2/C(=O)ON=C2c2ccccc2)cc1OC`, for which the inhibition in test [1] (at 25 µM) was determined as 27.4%. The IC50 in test [2] is > 100 µM (inactive).
Consider `O=C1NCCCC1C(=O)N/N=C/c1cccc(O)c1` (stereo unspecified), for which the inhibition in test [1] (at 1.563 µM) was 16%. In addition, the IC50 in test [2] was > 100 µM (inactive).
As for `CCOC(=O)c1c(/N=C/c2cccc([N+](=O)[O-])c2O)sc(C)c1C`, the inhibition in test [1] (at 50 µM) amounted to 58.5%. In addition, in test [2], the IC50 is 30.7 µM.
On to `CCCn1c(C)cc(C(=O)COC(=O)c2ccc[nH]c2=O)c1C`, for which the inhibition in test [1] (at 50 µM) is 17.4%. Moreover, the IC50 in test [2] was > 100 µM (inactive).
Turning to `CCOC(=O)C1C(C)N=C2SCC(=O)N2C1c1cccc(Br)c1` (stereo unspecified), the inhibition in test [1] (at 12.5 µM) stood at 12.2%. Further, the IC50 in test [2] was > 100 µM (inactive).
Regarding `O=c1cc(C(F)(F)F)[nH]c2c(C(F)(F)F)cccc12`, in test [1] (at 50 µM), the inhibition was determined as 97.5%. Further, the IC50 in test [2] is 11.2 µM.
Take `COc1ccc(CCNC(=O)c2cnn3c(C(F)F)cc(C)nc23)cc1OC`: the inhibition in test [1] (at 3.125 µM) is -1.3%. Moreover, the IC50 in test [2] is > 100 µM (inactive).
With `CNc1nnc(-c2cc3cc(Cl)ccc3oc2=O)s1`, in test [1] (at 25 µM), the inhibition was 12.5%. Also, the IC50 in test [2] was > 100 µM (inactive).
Consider `CCCCc1ccc(NC(=S)Nc2ccc(Nc3ccc(OC)cc3)cc2)cc1`, for which, in test [1] (at 50 µM), the inhibition was found to be 16.8%. In addition, the IC50 in test [2] is > 100 µM (inactive).
In the case of `CCCCCC/C(=N/O)c1ccccn1`, the inhibition in test [1] (at 50 µM) is 99.6%. In addition, the IC50 in test [2] is 9.77 µM.
Consider `O=S(=O)(Cc1ccccc1)NCc1cccnc1`, for which the inhibition in test [1] (at 12.5 µM) is 28.2%. Also, the IC50 in test [2] was > 100 µM (inactive).
As to `Cc1nc(Cl)c2oc3ccccc3c2n1`, the inhibition in test [1] (at 50 µM) came to 15.8%. For the same compound, the IC50 in test [2] was > 100 µM (inactive).
For the compound `COc1ccc2c(c1)S/C(=C\C(=O)c1ccncc1)N2C`, the inhibition in test [1] (at 50 µM) was 92.6%. The IC50 in test [2] was 6.24 µM.
For the compound `c1ccc(Cc2nnc3sc(-c4ccco4)nn23)cc1`, the inhibition in test [1] (at 25 µM) was found to be 4.05%. The IC50 in test [2] was > 100 µM (inactive).
Regarding `CCCCn1c(/N=C/c2c[nH]c3ccccc23)nc2ccccc21`, the inhibition in test [1] (at 0.781 µM) came out at 7.75%. Further, the IC50 in test [2] is > 100 µM (inactive).
Regarding `NC(N)=N/N=C/c1ccc(OCc2ccc(Cl)cc2)cc1`, the inhibition in test [1] (at 50 µM) came to 81.6%. Besides, the IC50 in test [2] is 34.6 µM.
On the same counts, the results for `Cc1noc2ncnc(Sc3ccccc3Cl)c12` are 69% and 39.5 µM.
Regarding `CC1=CC(=O)C=C(C)C1=NOS(=O)(=O)c1ccccc1`, the inhibition in test [1] (at 12.5 µM) is 62.4%. Besides, in test [2], the IC50 is 26.4 µM.
In the case of `C=C(C)COc1ccc(-c2[nH]ncc2Oc2ccccc2OC)c(O)c1`, in test [1] (at 1.563 µM), the inhibition was -1.35%. Further, in test [2], the IC50 was > 100 µM (inactive).
With `O=C(NNC(=S)NC(=O)C12CC3CC(CC(C3)C1)C2)c1ccncc1`, in test [1] (at 50 µM), the inhibition worked out at 94.8%. In addition, in test [2], the IC50 is 13.4 µM.
Regarding `COc1cc2c(cc1OC)CN(C(=O)CSc1nnc3scc(-c4ccccc4)n13)CC2`, in test [1] (at 0.781 µM), the inhibition came out at 17.1%. Besides, the IC50 in test [2] is > 100 µM (inactive).
As for `CN1CCN(C2=Cc3ccc(Cl)cc3Sc3ccc(F)cc32)CC1`, the inhibition in test [1] (at 50 µM) was found to be 99.8%. The IC50 in test [2] was 27.2 µM.
In the case of `O=C(/C(=C/O)N=Nc1ccccc1)c1ccncc1`, the inhibition in test [1] (at 50 µM) worked out at 100%. Besides, the IC50 in test [2] was 13.3 µM.

The values are drawn from PubChem BioAssay AID850 (SRMLSC, 2007).
